Laboratory results as given in publication PMC11305387, “AlphaFold accelerated discovery of psychotropic agonists targeting the trace amine–associated receptor 1” (Science Advances, 2024).
Where two headings read alike, the source gives them in different places.

What was measured:
hTAAR1 = molecular target: T1, hTAAR1 (Homo sapiens, UniProt Q96RJ0); assay: G protein (mini-Gs) recruitment luminescence complementation assay, agonist mode; type: cell-based
T1 construct: expressed in transfected cells; host or cells: Expi293F
T1 sequence (Q96RJ0 1-339): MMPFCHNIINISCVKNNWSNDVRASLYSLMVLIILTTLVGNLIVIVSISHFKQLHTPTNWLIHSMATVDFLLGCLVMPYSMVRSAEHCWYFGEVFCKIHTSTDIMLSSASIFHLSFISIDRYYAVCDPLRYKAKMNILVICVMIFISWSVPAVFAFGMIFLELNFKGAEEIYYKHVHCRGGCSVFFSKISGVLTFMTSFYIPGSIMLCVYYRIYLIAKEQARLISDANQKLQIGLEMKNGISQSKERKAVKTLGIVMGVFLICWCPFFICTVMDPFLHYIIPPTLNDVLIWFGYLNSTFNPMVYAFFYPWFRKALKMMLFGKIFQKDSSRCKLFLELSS
Protocol: The 62 predicted ligands were purchased from commercial vendors and tested for activity at a concentration of 20 μM in a luminescence complementation–based assay measuring recruitment of mini-Gs to the human TAAR1 ([38]).
To monitor TAAR1 activation by compounds, we used our previously described system. […] Cells were then reseeded in solid white, 96-well plates (Corning) with 90 μl of cell suspension per well. Luminescence was read using a plate reader for 5 min (SPARK 10 M, Tecan) before the addition of compounds to ensure signal stability. Ten microliters of each compound diluted in DPBS was added, and luminescence from each well was read for 10 min, with 100-ms read time per well. The A2AR counter-screen was performed using the same protocol. In these experiments, the hTAAR1 was replaced by a C-terminally SmBiT-tagged hA2AR construct.

WT and TAAR1-KO mice [1] = assay: Pre-pulse inhibition (PPI) behavioral assay; type: in vivo; conditions: compound 65 1 mg/kg, risperidone 0.2 mg/kg i.p.
Protocol: Measurements were performed using startle response chambers (San Diego Instruments, San Diego, CA, USA). Each chamber is sound-isolated and contains a Plexiglass animal enclosure attached to a platform and a loudspeaker that can produce both continuous white noise and acoustic pulses of varying intensities. The animal enclosure is large enough for the animal to turn around and make other movements to reduce restraint stress. Mouse startle responses to acoustic stimuli are transformed by a piezoelectric transducer under the platform into an analog signal. The transducers were calibrated before each experiment using a standardization unit (San Diego Instruments, San Diego, CA, USA), and the speakers were calibrated using a Type 2670 Microphone Preamplifier, a Type 4230 Sound Level Calibrator, and a Type 2610 Measuring Amplifier (Brüel & Kjær, Nærum, Denmark). To habituate the mice to the chambers, they were placed in the enclosure for 5 min, with 65-dB background white noise, on three different days before the start of experiments. PPI measurements were then conducted on each mouse on four occasions separated by 96 hours. The first occasion was a mock test session where all mice were injected with vehicle, serving to reduce the effect of novelty on subsequent sessions. The next three sessions were true test sessions with injection of either compound 65, risperidone, or vehicle. The R package agricolae was used to generate a randomized block design, randomizing treatment order across sex, genotype, and test session.
Animals were brought to the testing room for habituation 60 min before the starting of tests. Thirty minutes before PPI measurements, mice were injected with either compound 65 (1 mg/kg), risperidone (0.2 mg/kg), or vehicle intraperitoneally. Each test session started with a 5-min background noise (65-dB white noise) habituation period. The background noise continued throughout the test session. The habituation period was followed by four blocks of trials, with the first and last blocks consisting of five pulse-only trials (40-ms, 120-dB pulse). During block 2, five trial types were presented five times each in a pseudo-randomized order. The trial types included pulse only, no stimulus (NOSTIM), and three different pre-pulse trials in which 20 ms pre-pulses of different intensities (68, 71, or 77 dB) preceded the startle pulse (120 dB) by a 100-ms interval. Block 3 contained the same numbers and types of trials as block 2, but in a different pseudorandom order. […] PPI data are shown as PPI%, which was calculated as [1 − (pre-pulse trials/startle-only trials)] × 100. Mean PPI was calculated by adding the average PPI% for all pre-pulse intensities (3, 6, and 12 dB) and dividing it by the number (i.e., 3) of pre-pulse intensities.

WT and TAAR1-KO mice [2] = assay: Open-field test: baseline locomotion and MK-801-induced hyperlocomotion; type: in vivo; conditions: compound 65 1 mg/kg, risperidone 0.03 mg/kg
Protocol: To assess the influence of the compound on baseline locomotion and MK-801–induced hyperlocomotion, mice were subjected to open-field testing on four occasions separated by 96 hours. The first occasion was a mock test session where all mice were injected with vehicle only, serving to reduce the effect of novelty on subsequent sessions. The next three sessions were true test sessions with pretreatment of either compound 65, risperidone, or vehicle, followed by MK-801. The R package agricolae was used to generate a randomized block design, randomizing treatment order across sex, genotype, and test session. After injection with either compound 65 (1 mg/kg), risperidone (0.03 mg/kg), or vehicle intraperitoneally, mice were immediately placed in the open field and recorded for 15 min. They were then injected with MK-801 (0.35 mg/kg intraperitoneal) and recorded again for 60 min. The OFT arena measured 46 cm by 46 cm with gray floor and walls. The brightness at the center of each arena was 30 to 50 lux. The arenas were cleaned with 70% ethanol between each animal. Video from a camera mounted in the ceiling was analyzed using EthoVision XT11.5 (Noldus) software.

[3] = TAAR1, G protein recruitment assay, read-out: pEC50 (converted)
[4] = relative to the effect of the reference agonist β-PEA, read-out: Emax
[5] = Tables S3A/S3B, compounds tested at 20 μM, relative to the maximal effect of β-PEA (20 µM)

Structure (SMILES)	EC50 (hTAAR1; [3]) [nM]	Emax (hTAAR1; [4]) [%]	Emax (hTAAR1; [5]) [%]	other results
NCCc1ccccc1 [β-PEA, β-phenethylamine, reference compound]	251	–	–	Emax (hTAAR1): 100%
Brc1cccc2c1CNCC2 [Compound 62]	316	107	–	–
CCNCc1cncc2ccccc12 [Compound 59]	6310	78.8	–	–
OC(CNC[C@@H]1Cc2ccccc2CO1)C1CC1 (some centres unmarked) [Compound 44]	–	–	10.0	–
c1ccc2cc(CNC3CC3)ccc2c1 [Compound 56]	12600	63	–	–
C[C@@H](NCC1CC1)c1coc2ccccc12 [Compound 35]	–	–	0.9	–
c1ccc2c(c1)C[C@H]2CNCc1c[nH]cn1 [Compound 61]	5010	80.3	–	–
NC1CSc2ccc(Br)cc21 (centres unmarked) [Compound 9]	–	–	19.1	–
NC[C@H]1Cc2cc(Br)ccc2O1 [Compound 17]	6310	67.8	–	–
CNCc1cccc2cccnc12 [Compound 22]	3160	78.5	–	–
Cc1c(C(C)N)sc2ccccc12.Cl (centres unmarked) [Compound 5]	–	–	8.5	–
CC(N)c1cc2ccccc2s1 (centres unmarked) [Compound 7]	–	–	14.7	–
CNC(C)c1nc2ccccc2s1 (centres unmarked) [Compound 6]	–	–	8.8	–
c1coc(C2CNCCO2)c1 (centres unmarked) [Compound 64]	398	–	–	fold reduction of agonist potency versus compound 30 (hTAAR1; TAAR1 G protein recruitment): > 10 fold
C[C@H](N)c1csc2ccccc12 [Compound 15]	6310	57.5	–	–
C1=C(c2ccccc2)CNCC1 [Compound 67]	–	–	–	EC50 (hTAAR1; pEC50, TAAR1, G protein recruitment assay): 25.1 nM
C[C@@H](N)c1cc2ccccc2o1 [Compound 16]	1580	61.9	–	–
CC1=C(c2ccccn2)CNCC1 [Compound 75]	501	–	–	–
CC1=C(c2ccncc2)CNCC1 [Compound 77]	7940	–	–	–
CC(NCCO)c1cccc2c1OCO2 (centres unmarked) [Compound 38]	–	–	3.5	–
Cc1ccc2c(c1Br)CNC2 [Compound 28]	398	103	–	–
CNCc1cc2sccc2n1C [Compound 11]	–	–	40.4	–
CCNCc1cccc2ccoc12 [Compound 60]	3160	79.9	–	–
COc1cccc(C2=CCNC2)c1 [Compound 24]	1580	81.4	–	Emax at 20 µM (hTAAR1; [5]): 81.8%
CCN1CCCC(c2ccccc2)C1 (centres unmarked) [Compound 52]	–	–	44.5	–
COc1cccnc1C1=C(C)CCNC1 [Compound 69]	3160	–	–	–
Cc1nc2n(c(=O)c1CCN1CCC(c3noc4cc(F)ccc34)CC1)CCCC2 [risperidone, reference compound]	–	–	–	effect on PPI (WT and TAAR1-KO mice [1]; TAAR1-KO mice): increased PPI; effect on PPI (WT and TAAR1-KO mice [1]; WT mice): general augmentation in PPI compared to the vehicle control; effect on locomotion (WT and TAAR1-KO mice [2]; TAAR1-KO mice): significant reduction in locomotion; effect on MK-801–induced hyperlocomotion (WT and TAAR1-KO mice [2]; WT mice, MK-801 0.35 mg/kg): significant decrease; effect on baseline locomotion (WT and TAAR1-KO mice [2]; WT mice, versus vehicle): notable reduction
c1csc([C@H]2CCCNC2)n1 [Compound 25]	1000	95.3	–	–
